pKi: −log10 of the molar value.
Experiments:
[1] = target: Neuronal acetylcholine receptor subunit alpha-7 (Rattus norvegicus, UniProt Q05941); experiment: Displacement of [3H]alpha-Bungarotoxin from alpha-7 nAChR in rat brain cortex membranes; type: cell membranes, Membrane
[2] = target: Neuronal acetylcholine receptor; alpha4/beta2 (Rattus norvegicus, UniProt P09483+P12390); experiment: Displacement of [3H]epibatidine from alpha-4-beta-2 nAChR in rat brain cortex membrane; type: cell membranes
Sequence of Neuronal acetylcholine receptor; alpha4/beta2 (P09483 whole entry): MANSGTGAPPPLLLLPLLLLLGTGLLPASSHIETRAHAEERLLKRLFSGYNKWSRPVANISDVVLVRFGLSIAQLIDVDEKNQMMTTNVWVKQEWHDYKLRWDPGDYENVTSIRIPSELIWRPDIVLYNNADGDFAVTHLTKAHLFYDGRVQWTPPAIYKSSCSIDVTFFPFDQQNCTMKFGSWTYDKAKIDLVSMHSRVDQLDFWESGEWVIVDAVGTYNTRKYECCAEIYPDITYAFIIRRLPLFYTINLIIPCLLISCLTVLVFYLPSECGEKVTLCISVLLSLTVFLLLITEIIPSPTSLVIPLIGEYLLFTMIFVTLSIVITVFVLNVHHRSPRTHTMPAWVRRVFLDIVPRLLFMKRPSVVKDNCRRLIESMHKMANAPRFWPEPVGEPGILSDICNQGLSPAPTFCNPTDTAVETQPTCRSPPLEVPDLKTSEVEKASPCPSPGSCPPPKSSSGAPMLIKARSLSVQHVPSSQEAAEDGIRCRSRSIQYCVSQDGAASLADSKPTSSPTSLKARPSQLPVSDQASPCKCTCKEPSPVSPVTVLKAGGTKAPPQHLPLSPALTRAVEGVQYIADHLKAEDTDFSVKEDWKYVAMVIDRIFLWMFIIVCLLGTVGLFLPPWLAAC
Sequence of Neuronal acetylcholine receptor; alpha4/beta2 (P12390 whole entry): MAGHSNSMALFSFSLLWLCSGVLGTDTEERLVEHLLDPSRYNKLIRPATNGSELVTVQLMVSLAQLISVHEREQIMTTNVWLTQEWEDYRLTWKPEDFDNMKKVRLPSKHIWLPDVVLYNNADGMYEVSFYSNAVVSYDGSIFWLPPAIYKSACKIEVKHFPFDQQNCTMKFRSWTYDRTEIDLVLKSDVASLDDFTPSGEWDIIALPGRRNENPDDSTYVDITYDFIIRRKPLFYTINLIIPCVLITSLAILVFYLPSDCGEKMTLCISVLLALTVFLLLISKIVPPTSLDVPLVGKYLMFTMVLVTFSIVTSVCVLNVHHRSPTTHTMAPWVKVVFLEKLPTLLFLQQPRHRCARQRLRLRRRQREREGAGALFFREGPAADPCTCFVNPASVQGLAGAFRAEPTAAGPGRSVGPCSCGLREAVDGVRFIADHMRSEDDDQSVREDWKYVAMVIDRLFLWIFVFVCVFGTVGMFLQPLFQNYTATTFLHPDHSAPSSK

[3] = target: T1, Adrenergic receptor alpha-2 (Rattus norvegicus, UniProt P22086+P19328+P22909); experiment: Displacement of [3H]RS 79948-197 from rat cortex adrenergic alpha-2 receptor
T1 sequence (P22086 whole entry): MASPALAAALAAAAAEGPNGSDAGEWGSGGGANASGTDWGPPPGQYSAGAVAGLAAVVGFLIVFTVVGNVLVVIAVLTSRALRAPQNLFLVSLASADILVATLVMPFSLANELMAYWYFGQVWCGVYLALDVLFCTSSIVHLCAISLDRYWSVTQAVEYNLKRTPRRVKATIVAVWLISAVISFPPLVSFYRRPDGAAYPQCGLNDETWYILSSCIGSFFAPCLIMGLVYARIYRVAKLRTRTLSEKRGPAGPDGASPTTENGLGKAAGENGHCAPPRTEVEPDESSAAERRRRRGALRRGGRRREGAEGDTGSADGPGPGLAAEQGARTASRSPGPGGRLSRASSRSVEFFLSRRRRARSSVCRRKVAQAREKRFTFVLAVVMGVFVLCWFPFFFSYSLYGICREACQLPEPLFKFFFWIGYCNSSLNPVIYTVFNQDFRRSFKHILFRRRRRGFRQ
T1 sequence (P19328 whole entry): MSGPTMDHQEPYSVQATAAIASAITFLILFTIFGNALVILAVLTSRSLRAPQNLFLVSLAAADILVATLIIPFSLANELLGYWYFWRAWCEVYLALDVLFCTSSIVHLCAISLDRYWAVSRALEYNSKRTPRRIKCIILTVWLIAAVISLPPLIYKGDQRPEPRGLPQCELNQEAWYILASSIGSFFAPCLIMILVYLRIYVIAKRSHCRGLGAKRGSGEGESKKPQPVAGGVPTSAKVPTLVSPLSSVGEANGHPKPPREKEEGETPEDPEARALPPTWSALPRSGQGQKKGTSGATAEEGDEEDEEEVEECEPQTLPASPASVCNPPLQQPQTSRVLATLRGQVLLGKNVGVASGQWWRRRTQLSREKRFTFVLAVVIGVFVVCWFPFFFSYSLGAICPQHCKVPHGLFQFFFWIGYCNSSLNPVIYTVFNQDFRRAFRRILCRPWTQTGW
T1 sequence (P22909 whole entry): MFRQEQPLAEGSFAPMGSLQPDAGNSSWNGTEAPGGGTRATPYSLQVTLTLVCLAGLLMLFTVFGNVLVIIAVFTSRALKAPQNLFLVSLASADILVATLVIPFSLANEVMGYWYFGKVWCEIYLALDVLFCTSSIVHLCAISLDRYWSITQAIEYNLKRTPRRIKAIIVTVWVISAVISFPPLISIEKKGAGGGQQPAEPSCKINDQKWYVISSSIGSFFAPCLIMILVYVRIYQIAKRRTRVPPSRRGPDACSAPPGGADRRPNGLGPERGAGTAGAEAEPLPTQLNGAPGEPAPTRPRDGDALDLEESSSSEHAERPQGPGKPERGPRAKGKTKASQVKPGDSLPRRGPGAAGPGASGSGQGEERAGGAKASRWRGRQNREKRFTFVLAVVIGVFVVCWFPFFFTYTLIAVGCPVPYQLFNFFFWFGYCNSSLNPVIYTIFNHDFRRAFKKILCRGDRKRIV

Sequence of Neuronal acetylcholine receptor subunit alpha-7 (Q05941 whole entry): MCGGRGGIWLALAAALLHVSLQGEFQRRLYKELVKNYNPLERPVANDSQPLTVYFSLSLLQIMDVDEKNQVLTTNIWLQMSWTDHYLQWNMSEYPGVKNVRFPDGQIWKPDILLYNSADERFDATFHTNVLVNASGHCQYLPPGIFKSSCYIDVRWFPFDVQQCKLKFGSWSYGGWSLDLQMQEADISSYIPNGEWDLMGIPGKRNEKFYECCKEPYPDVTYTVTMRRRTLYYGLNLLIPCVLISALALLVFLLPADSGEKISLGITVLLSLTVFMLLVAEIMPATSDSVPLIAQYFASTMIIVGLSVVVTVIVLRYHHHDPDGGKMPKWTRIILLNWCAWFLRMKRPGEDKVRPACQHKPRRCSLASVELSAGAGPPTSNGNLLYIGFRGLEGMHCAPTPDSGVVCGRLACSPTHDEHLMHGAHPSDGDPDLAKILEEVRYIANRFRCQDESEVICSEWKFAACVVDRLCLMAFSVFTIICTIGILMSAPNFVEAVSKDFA

CN1CCC[C@@H]1[C@@H]1CNC(=O)O1
pKi [1]: 3.47
pKi [2]: 4.10

CN1CCC[C@H]1[C@@H]1COc2ccccc2O1.Cl
pKi [1]: 4.92
pKi [2]: 6.21
Ki [3]: 0.77 µM

CN1CCC[C@@H]1[C@H]1COc2ccccc2O1.Cl
pKi [1]: 4.35
pKi [2]: 5.59
Ki [3]: 0.47 µM

CN1CCC[C@H]1[C@H]1CNC(=O)O1
pKi [1]: 3.93
pKi [2]: 4.21

Reference: ChEMBL document CHEMBL1139700 (Bioorg Med Chem Lett, 2006)
